Measured values reported in patent US4535090A, “3,5-Diphenyl-1H-1,2,4-triazoles pharmaceutical compositions and uses” (Gruppo Lepetit S.p.A., priority 1981, dated 1985).
Read-outs that look alike come from different tables or passages of the source.

Test system: pregnancy in female Sprague Dawley rats
Assay: Pregnancy termination activity in rats after a single subcutaneous injection at day 7 of gestation
Format: in vivo, rat (Sprague Dawley)
Conditions: rat, single s.c. injection; for ED50: sc, autopsy day 16, read-out: ED50 (dose terminating pregnancy, absence of live fetuses, in 50% of the treated animals); for ED50 (dose terminating pregnancy, absence of live fetuses, in 50% of the treated animals): autopsy day 16
Procedure: In particular, female Sprague Dawley rats weighing 200-230 g were mated and the presence of sperm in the vagina was taken as evidence of mating. The day the sperm was detected, was considered day one of pregnancy. Pregnancy was later confirmed at the time of autopsy by the presence of implantation sites in the uterus.
Test compounds dissolved in sesame oil containing 20% benzyl benzoate (or suspended if insoluble), were administered subcutaneously, in a single injection, on day 7 of gestation. The animals were then autopsied on day 16 of pregnancy and the uteri were examined for evidence of pregnancy (implantation sites, fetal resorption or live fetuses), hemorrage, and evidence of abnormalities of the uterus, placenta or fetuses.

[1] = dissolved in sesame oil containing 20% benzyl benzoate (or suspended if insoluble)

Question: How did the ED50 [1] turn out when `CCCCCCCCCC(=O)OCc1ccccc1-c1nc(-c2cccc(OC)c2)n[nH]1` [Example 4, 5-(2-decanoyloxymethylphenyl)-3-(3-methoxyphenyl)-1H-1,2,4-triazole] was run?
Answer: 2 mg/kg

Question: With `CCCCCCCCCC(=O)OCc1ccccc1-c1nc(-c2ccc(OC)c(OC)c2)n[nH]1` [Example 8, 5-(2-decanoyloxymethylphenyl)-3-(3,4-dimethoxyphenyl)-1H-1,2,4-triazole] as the molecule, how does the ED50 [1] read?
Answer: 10 mg/kg

Question: Which ED50 [1] does the source give for `CCCCCCCCCCCC(=O)OCc1ccccc1-c1nc(-c2cccc(OC)c2)n[nH]1` [Example 2, 5-(2-dodecanoyloxymethylphenyl)-3-(3-methoxyphenyl)-1H-1,2,4-triazole] here?
Answer: 2 mg/kg

Question: Which ED50 [1] does the source give for `CCCCCC(=O)OCc1ccccc1-c1nc(-c2cccc(OCC)c2)n[nH]1` [Example 9, 3-(3-ethoxyphenyl)-5-(2-hexanoyloxymethylphenyl)-1H-1,2,4-triazole] here?
Answer: 7 mg/kg

Question: “1-hexanoyl-3(5)-(2-hexanoyloxymethylphenyl)-5(3)-(3-methoxyphenyl)-1H-1,2,4-triazole [Example 11]” was tested. Which “ED50 (dose terminating pregnancy, absence of live fetuses, in 50% of the treated animals)” value [1] did it give?
Answer: 8 mg/kg

Question: With `COc1cccc(-c2n[nH]c(-c3ccccc3CO)n2)c1` [5-(2-Hydroxymethylphenyl)-3-(3-methoxyphenyl)-1H--1,2,4-triazole, reference compound] as the molecule, how does the ED50 (given suspended instead of dissolved) read?
Answer: 40 mg/kg

Question: `CCCCCCCC(=O)OCc1ccccc1-c1nc(-c2cccc(OCC)c2)n[nH]1` [Example 3, 3-(3-ethoxyphenyl)-5-(2-octanoyloxymethylphenyl)-1H-1,2,4-triazole] was tested. Which ED50 [1] did it give?
Answer: 4 mg/kg

Question: Which ED50 [1] does the source give for `COc1cccc(-c2n[nH]c(-c3ccccc3COC(C)=O)n2)c1` [5-(2-Acetyloxymethylphenyl)-3-(3-methoxyphenyl)-1H--1,2,4-triazole, reference compound] here?
Answer: 50 mg/kg

Question: Which ED50 [1] does the source give for `CCCCCCCCCC(=O)OCc1ccccc1-c1nc(-c2cccc(OCC)c2)n[nH]1` [Example 7] here?
Answer: 2 mg/kg

Question: How did the “ED50 (dose terminating pregnancy, absence of live fetuses, in 50% of the treated animals)” value [1] turn out when “1-acetyl-3(5)-(2-decanoyloxymethylphenyl)-5(3)-(3,4-dimethoxyphenyl)-1H-1,2,4-triazole [Example 10]” was run?
Answer: 4 mg/kg

Question: `CCCCCCCCCCCC(=O)OCc1ccccc1-c1nc(-c2ccc(OC)c(OC)c2)n[nH]1` [Example 6, 5-(2-dodecanoyloxymethylphenyl)-3-(3,4-dimethoxyphenyl)-1H-1,2,4-triazole] was tested. Which ED50 [1] did it give?
Answer: 2 mg/kg

Question: How did the ED50 [1] turn out when `CCCCCCCC(=O)OCc1ccccc1-c1nc(-c2cccc(OC)c2)n[nH]1` [Example 1, 3-(3-methoxyphenyl)-5-(2-octanoyloxymethylphenyl)-1H-1,2,4-triazole] was run?
Answer: 13 mg/kg
